Values of other authors in patent publication US20150320677A1, “EFFERVESCENT TABLET FORMULATIONS OF DAPOXETINE AND A PDE5 INHIBITOR” (Sanovel Ilac Sanayi Ve Ticaret Anonim Sirketi, priority 2012, published 2015).

How the values were obtained:
[1] = in vivo, po
[2] = following oral administration

Row | Compound | binding to plasma proteins [1] | onset of action takes (second sentence of b41) [2]
1 | Dapoxetine | almost completely binding to plasma proteins | –
2 | CN1CC(=O)N2[C@H](c3ccc4c(c3)OCO4)c3[nH]c4ccccc4c3C[C@@H]2C1=O [tadalafil, (6R-trans)-6-(1,3-benzodioxol-5-yl)-2,3,6,7,12,12a-hexahydro-2-methyl-pyrazino[1′,2′:1,6]pyrido[3,4-b]indole-1,4-dione] | – | up to 36 hours
